The text below walks through data of patent publication US20230348419A1, “BIAMINOQUINOLINES AND NANOFORMULATIONS FOR CANCER TREATMENT” (The Regents of the University of California, priority 2019, published 2023).

Where two headings read alike, the source gives them in different places.

The subject of one series is H460. Description: MTS cell viability assay. In kind it is cell-based. Conditions: 24 h; read-out: IC50 (μM) in the 24 h treatment H460. The protocol:
(§1) Cell line and cell culture. The human pancreatic cancer cell lines (MIA PaCa-2, BXPC3, and PANC-1) were originally purchased from ATCC and were kindly provided by Dr. Shiro Urayama's Lab. HT29, HCT116, H460, MCF7, NIH/3T3, and IMR-90 cell lines were purchased from ATCC. Bone marrow cells were collected from the leg bone marrows of FVB/N mice. All the cells were cultured at 37° C. in a humidified atmosphere of 5% CO2/95% air using the corresponding medium supplemented with 10% fetal bovine serum, […] according to ATCC protocol. All the cell lines have been tested for mycoplasma contamination routinely.
(§2) Cell viability, cell growth and colony formation. Cell viability was assessed by the MTS assay. Briefly, cells in 96-well plates (4,000 cell per well) were treated as indicated, followed by the incubation with MTS regents for 4 h. OD values (490 nm) were determined via a microplate reader. Results were shown as the average cell viability calculated from the formula of [(ODtreat−ODblank)/(ODcontrol−ODblank)×100%]. Drug combination data were analyzed by Combenefit 2.02. In cell growth assay, cells in 6-well plates (50,000 cell per well) were treated as indicated and were counted manually every 24 h. Colony formation assay was also performed on 6-well plates with a starting density of 1,000-2,000 cells per well. After incubated as indicated for 10-20 days, cells were washed with PBS and stained with the solution of crystal violet and methanol for 20 min.

For a further series, the system named is HT29. Description: MTS cell viability assay. Conditions: read-out: IC50 (μM) in the 24 h treatment HT29. In kind it is cell-based. Here is the method: as §1, §2
The subject of a further series is MCF-7. Description: MTS cell viability assay. Conditions: 24 h; read-out: IC50 (μM) in the 24 h treatment MCF-7. In kind it is cell-based. The protocol: as §1, §2
A further series has as its system BXPC-3. The experiment in a line: MTS cell viability assay. The series is classed as cell-based, human. The settings on record: 24 h; read-out: IC50 (μM) in the 24 h treatment BXPC-3. Here is the method:
as §1, §2

The next series concerns MIA PaCa-2. The experiment in a line: MTS cell viability assay. The series is classed as cell-based, human. Conditions: read-out: IC50 (μM) in the 24 h treatment MIA PaCa-2. The protocol: as §1, §2
The next series deals with PANC-1. Description: MTS cell viability assay. In kind it is cell-based, human. The settings on record: 24 h; read-out: IC50 (μM) in the 24 h treatment PANC-1. The protocol:
as §1, §2

Series [1] is described as follows: Nanoparticle characterization of BAQ NPs (DLS, TEM). The series is classed as physicochemical. The settings on record: assembled NPs in water; for PDI / Size (nm): DLS. The protocol:
(§3) Preparation and characterization of BAQ ONNs. NPs were prepared through the re-precipitation method. BAQ derivatives in methanol were added dropwise into MilliQ water while stirring for 5 min (volume ratio, 1:10), and then homogenous NPs were obtained after rotary evaporation (40° C., 20 min), followed by the characterization with Zetasizer Nano ZS (Malvern). The TEM samples were prepared by dropping 0.5 mM NPs on carbon square mesh and dried naturally, which were then observed under the Talos L120C TEM (FEI) at an accelerating voltage of 80 kV. To determine the drug content in nanoformulations, the prepared drug-loaded NPs were cut off by centrifugal filter (ultracel-10 kDa, Millipore), and the absorbance of filtrate (diluted with DMSO, 1:10, volume ratio) was measured for calculation of drug concentrations.

A short description of series [2]: Drug loading using BAQ13 NPs. The series is classed as physicochemical. Conditions: for PDI / Size/diameter: BAQ13 NPs loaded with the drug or dye; for Encapsulation efficiency / Drug-loading content: drug or dye loaded in BAQ13 NPs; for Drug-loading content: mass ratio. The protocol: as §3
Next investigation was whether liposome-like BAQ ONNs can encapsulate additional agents. Upon nanoprecipitation of BAQ13 and various agents, homogeneous NPs with monomodal size distributions spontaneously formed (Table 2 and FIG. 9G).

For series [3], the system named is various cancer cell lines. The experiment in a line: Preliminary MTS screening, 24 h. The series is classed as cell-based. The settings on record: 24 h MTS. Here is the method: To verify the therapeutic effects of BAQ12-BAQ18, a preliminary screening was conducted using an MTS assay on various cancer cell lines. […] This decrease was due to gradual declines in the detergence and H^+ buffering capacity of compounds. Based on the results above, BAQ12 and BAQ13 were then selected as representatives for construction of BAQ ONNs in the following studies.
as §2

Series [4] concerns three pancreatic cancer cell lines (MIA PaCa-2, BxPC-3, and PANC-1) and two colon cancer cell lines (HT29 and HCT116). Description: 48 h MTS assay on pancreatic and colon cancer cell lines. In kind it is cell-based. Here is the method: as §2
In vitro antitumour activity of BAQ derivatives. To systematically investigate the antitumour effects in vitro, three pancreatic cancer cell lines (MIA PaCa-2, BxPC-3, and PANC-1) and two colon cancer cell lines (HT29 and HCT116) were selected for a 48 h MTS assay. […] The improved anticancer activity of BAQ ONNs is attributable to their multiple functions in inducing LMP, lysosomal dysfunction and autophagy inhibition in cancer cells; these effects are considered to be important triggers of apoptosis. To examine the proapoptotic effects of BAQ ONNs, apoptosis signals in MIA PaCa-2 and HT29 cells was subsequently detected. […] Lys05, the control, increased apoptotic signals in a concentration-dependent manner, but its effect at a high concentration close to the IC50 was still milder than those of the low concentrations of BAQ ONNs.

Regarding `CCCCCCCCCCCCCCCN(CCNc1ccnc2cc(Cl)ccc12)CCNc1ccnc2cc(Cl)ccc12` [BAQ15], the half-maximal inhibitory concentration (IC50) is 24.1 ± 0.4 µM in the series with H460; 16.1 ± 2.5 µM in the series with HT29 (24 h); more than 60 µM with MCF-7; 17.2 ± 2 µM in the series with BXPC-3; 42 ± 11.7 µM with MIA PaCa-2 (24 h); 34.5 ± 3.9 µM in the series with PANC-1. Further, the “Zeta Potential (mV)” value in series [1] came out at 38.0 ± 2.9 mV. The compound also gave a PDI in series [1] of 0.086. The “Size (nm)” value in series [1] is given as 107.3 ± 2.6 nm.
Take `Nc1cccc2c1CN(C1CCC(=O)NC1=O)C2=O` (centres unmarked) [Lenalidomide]: in series [2], the PDI was 0.069, the Size/diameter was determined as 85 nm, the Encapsulation efficiency stood at 88% and the Drug-loading content is reported as 50%.
As for `CC(C)C[C@H](NC(=O)[C@H](Cc1ccccc1)NC(=O)c1cnccn1)B(O)O` [Bortezomib], in series [2], the PDI amounted to 0.09, the Size/diameter is given as 92 nm, the Encapsulation efficiency is 89% and the Drug-loading content was 50%.
In the case of `CCCCCCCCCCCCCCCCCCN(CCNc1ccnc2cc(Cl)ccc12)CCNc1ccnc2cc(Cl)ccc12` [BAQ18], the IC50 in the series on H460 is more than 90 µM; in the series on HT29 (24 h), more than 100 µM; in the series with MCF-7, more than 90 µM; in the series with BXPC-3, more than 90 µM; in the series with MIA PaCa-2 (24 h), more than 90 µM; in the series on PANC-1 it was more than 90 µM. Further, in series [1], the “Zeta Potential (mV)” value worked out at 39.5 ± 0.8 mV. The PDI in series [1] was found to be 0.093. Also, in [1], the “Size (nm)” value was 96.7 ± 1.6 nm.
Take `CCCCCCCCCCCCCCN(CCNc1ccnc2cc(Cl)ccc12)CCNc1ccnc2cc(Cl)ccc12` [BAQ14]: the IC50 in the series with H460 was found to be 24 ± 0.3 µM; in the series with HT29 (24 h) it was 9.6 ± 2 µM; with MCF-7, 28.5 ± 3.5 µM; in the series with BXPC-3 it was 7.5 ± 0.7 µM; in the series on MIA PaCa-2 (24 h), 16 ± 1.8 µM; in the series with PANC-1, 10.4 ± 1.8 µM. Further, in series [1], the “Zeta Potential (mV)” value stood at 39.1 ± 0.4 mV. In [1], this compound displayed a PDI of 0.069. For the same compound, the “Size (nm)” value in series [1] is 137.9 ± 4.6 nm.
With `CC1(C)CCC2=C(O1)c1ccccc1C(=O)C2=O` [β-lapachone], in series [2], the PDI came to 0.047, the Size/diameter is 128 nm, the Encapsulation efficiency came to 95% and the Drug-loading content was 33%.
`COc1cc([C@@H]2c3cc4c(cc3[C@@H](O[C@@H]3O[C@@H]5CO[C@@H](C)O[C@H]5[C@H](O)[C@H]3O)[C@H]3COC(=O)[C@H]23)OCO4)cc(OC)c1O` [Etoposide]: in series [2], the PDI amounted to 0.104, the Size/diameter came out at 69 nm, the Encapsulation efficiency is listed as 86% and the Drug-loading content came to 50%.
As for `COc1ccc(-c2nc(-c3cc(C(F)(F)F)cc(C(F)(F)F)c3)n(Cc3ccc(C(N)=O)cc3)c2-c2ccc(OC)cc2)cc1` [Apoptozole], in [2], the PDI is 0.099, the Size/diameter was 85 nm, the Encapsulation efficiency stood at 93% and the Drug-loading content was 50%.
For the compound `CCCCCCCCCCCCN(CCNc1ccnc2cc(Cl)ccc12)CCNc1ccnc2cc(Cl)ccc12` [BAQ12], in series [3], the “fold higher potency than HCQ” value is approximately 20 fold, the “fold higher potency than Lys05” value was approximately 3 fold and the “fold higher potency than MSDH” value is recorded as approximately 10 fold. Besides, in series [4], the “effect alone versus combination treatment with Lys05 and MSDH” value is “more effective than combination treatment with Lys05 and MSDH”; the “fold more potent than HCQ” value amounted to 30 fold. Also, the IC50 with H460 was determined as 2.7 ± 0.5 µM. The IC50 with HT29 (24 h) is 3.5 ± 1.2 µM. Further, the IC50 in the series with MCF-7 came to 3.1 ± 0.1 µM. Besides, the IC50 in the series with BXPC-3 was determined as 2.9 ± 0.6 µM. In addition, in the series with MIA PaCa-2 (24 h), the IC50 was 4.1 ± 0.8 µM. Further, the IC50 in the series with PANC-1 was 4.5 ± 0.9 µM. Also, in series [1], the “Zeta Potential (mV)” value was determined as 36.4 ± 1.5 mV, the PDI was determined as 0.069 and the “Size (nm)” value was determined as 102.5 ± 3.1 nm.
Take `CCCCCCCCCCCCCCCCN(CCNc1ccnc2cc(Cl)ccc12)CCNc1ccnc2cc(Cl)ccc12` [BAQ16]: the IC50 in the series with H460 is more than 90 µM; in the series on HT29 (24 h), more than 80 µM; in the series with MCF-7 it was more than 90 µM; in the series on BXPC-3, 27.6 ± 2.8 µM; with MIA PaCa-2 (24 h), 60.7 ± 13.9 µM; in the series on PANC-1, more than 90 µM. Also, in [1], the “Zeta Potential (mV)” value came to 40.4 ± 0.5 mV. The compound also yielded a PDI in series [1] of 0.082. For the same compound, the “Size (nm)” value in [1] is 119.7 ± 2.1 nm.
Regarding `CC[C@]1(O)C[C@@H]2CN(CCc3c([nH]c4ccccc34)[C@@](C(=O)OC)(c3cc4c(cc3OC)N(C)[C@H]3[C@@](O)(C(=O)OC)[C@H](OC(C)=O)[C@]5(CC)C=CCN6CC[C@]43[C@@H]65)C2)C1` [Vinblastine], in series [2], the PDI is 0.133, the Size/diameter is listed as 60 nm, the Encapsulation efficiency amounted to 95% and the Drug-loading content was determined as 50%.
For the compound `Cc1sc2c(c1C)C(c1ccc(Cl)cc1)=N[C@@H](CC(=O)OC(C)(C)C)c1nnc(C)n1-2` [JQ1], in [2], the PDI was 0.048, the Size/diameter amounted to 110 nm, the Encapsulation efficiency is 92% and the Drug-loading content is 50%.
Regarding `CCN(CCO)CCCC(C)Nc1ccnc2cc(Cl)ccc12` (centres unmarked) [HCQ, hydroxychloroquine], the IC50 was more than 75 µM with HT29 (Homo sapiens, HT-29, 24 h) and 79.6 ± 8.5 µM in the series on MIA PaCa-2 (Homo sapiens, MIA PaCa-2, 24 h).
